This is an account of results in patent US12123030B2, “Polynucleotides encoding lipoprotein lipase for the treatment of hyperlipidemia” (ModernaTX, Inc., priority 2016, dated 2024).

One data set relates to ffluc. The data set can be described thus: Average total flux (ffluc) from nanoparticle compositions. The data set is classed as in vivo. As to conditions: 6 h.
A further data set relates to IP-10. Nature of the data set: Cytokine expression after nanoparticle compositions: IP-10. The data set is classed as in vivo. Particulars: 6 h; nanoparticle composition including the compound.
Another data set has as its system IL-6. The data set can be described thus: Cytokine expression after nanoparticle compositions: IL-6. The data set is classed as in vivo. As to conditions: 6 h; nanoparticle composition including the compound.
For the next data set, the system named is hEPO. The data set can be described thus: hEPO expression from nanoparticle compositions. It counts as in vivo. Particulars: for hEPO expression: nanoparticle composition including the compound; for Average hEPO concentration: Table 9.
Another data set deals with 4 strain Ames test. Nature of the data set: 4 strain Ames test. The data set is classed as cell-based. Particulars: in vitro. The protocol: (§1) Dose range finding (DRF) studies using surrogate Compound 18 are in progress to further examine the Compound 18 programs. One month of a DRF study, consisting of one dose per week (5 total doses) in adult rat was performed in order to measure hematology, clinical chemistry, and full pathology. […] Additionally, one month of GLP dose studies, consisting of five doses (one per week) via IV infusion will be administered to rats in order to examine safety pharmacology measures, including central nervous system (rats) and cardiovascular system (monkeys), such as heart rate, blood pressure, and EKG readings. Furthermore, gene toxicity studies were be undertaken, in vitro, using a 4 strain Ames test, and in vitro micronucleous hPBMCs. […] An in vivo mouse micronucleus assay will also be performed to further investigate the Compound 18/5-methoxy uridine (mo5U) modification chemistry.

A further data set has as its system adult rat. The data set can be described thus: Dose range finding (DRF) study in adult rat. The data set is classed as in vivo. Particulars: one month, one dose per week (5 total doses). The protocol: as §1
In data set [1] the test system is triglycerides in HTG patients. As to conditions: existing HTG treatments; cited from earlier work.
The subject of a further data set is triglycerides. Particulars: existing hyperlipidemia treatment, patients; cited from earlier work.

Turning to `CCCCC/C=C\C/C=C\CCCCCCCCN(CCO)CCCCCCCC(=O)OC(CCCCCCCC)CCCCCCCC` [Compound 6], the Average total flux in the data set with ffluc is 7.60 × 10^9. Further, the “Cytokine expression IP-10” value in the data set with IP-10 was 116.66 pg/mL. Further, the “Cytokine expression IL-6” value in the data set on IL-6 amounted to 10.15 pg/mL.
`CCCCCCCCCOC(=O)CCCCCCCN(CCO)CCCCCCCC(=O)OC(CCCCCCCC)CCCCCCCC` [Compound 18, Heptadecan-9-yl 8-((2-hydroxyethyl)(8-(nonyloxy)-8-oxooctyl)amino) octanoate] gave a hEPO expression in the data set with hEPO (3 h) of 3e+06 pg/mL. For the same compound, in the data set with hEPO (6 h), the “Average hEPO concentration” value was determined as 3.38e+06 pg/mL. This compound also gave a hEPO expression in the data set on hEPO (24 h) of 1.8e+06 pg/mL. The “mutagenic potential (Ames data)” value with 4 strain Ames test was “does not have mutagenic potential”. For the same compound, in the data set with adult rat, the adverse events entry is reported as “No adverse events were reported” and the clinical chemistry entry is recorded as “normal”. Moreover, the “Cytokine expression IP-10” value in the data set on IP-10 turned out to be 299.93 pg/mL. The “Cytokine expression IL-6” value in the data set on IL-6 was 10.16 pg/mL.
On to `CCCCC/C=C\C/C=C\CCCCCCCCC(CCCCCCCC/C=C\C/C=C\CCCCC)OC(=O)CCCN(C)C` [MC3], for which the hEPO expression amounted to 1.57e+06 pg/mL with hEPO (3 h), 1.83e+06 pg/mL in the data set with hEPO (6 h) and 810000 pg/mL with hEPO (24 h). For the same compound, the “Average hEPO concentration” value in the data set with hEPO (6 h) was found to be 1.83e+06 pg/mL. The Average total flux in the data set on ffluc is given as 6.59 × 10^9. The “Cytokine expression IP-10” value with IP-10 turned out to be 117.94 pg/mL. For the same compound, the “Cytokine expression IL-6” value in the data set with IL-6 is 19.85 pg/mL.
With `O=C(O)c1cccnc1` [Nicotinic acid], the reduction in triglycerides (in data set [1]; in the data set with triglycerides) was 15-25% each time.
